Laboratory results from ChEMBL document CHEMBL1201862, “PubChem BioAssay data set” (2004).
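Briefly, cells in 96-well plates were exposed to five compound concentrations for 48 h, and endpoints were estimated by linear interpolation. The concentration for 50% growth inhibition is given as GI50.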 The source made the active and inactive calls. Cut-off read from the data, not from the text of the source: active = GI50 up to about 1.1 µM and inactive = higher. Peptide text beside a SMILES is read from it. * marks the point of attachment. Boc = CC(C)(C)OC(=O)*

Legend:
Test in all cases: NCI-60 cell line screen, 48 h
ACHN = tested on: ACHN
UACC-62 = tested on: UACC-62
U-251 = tested on: U-251
EKVX = tested on: EKVX
HOP-92 = tested on: HOP-92
IGROV-1 = tested on: IGROV-1
SW-620 = tested on: SW-620
OVCAR-3 = tested on: OVCAR-3
CCRF-CEM = tested on: CCRF-CEM
NCI-H460 = tested on: NCI-H460
SNB-19 = tested on: SNB-19
A498 = tested on: A498
M14 = tested on: M14
UACC-257 = tested on: UACC-257
SNB-75 = tested on: SNB-75
NCI-H522 = tested on: NCI-H522
RPMI-8226 = tested on: RPMI-8226
A549 = tested on: A549
K562 = tested on: K562
NCI-H23 = tested on: NCI-H23

| Compound | GI50 (ACHN) | GI50 (UACC-62) | GI50 (U-251) | GI50 (EKVX) | GI50 (HOP-92) | GI50 (IGROV-1) | GI50 (SW-620) | GI50 (OVCAR-3) | GI50 (CCRF-CEM) | GI50 (NCI-H460) | GI50 (SNB-19) | GI50 (A498) | GI50 (M14) | GI50 (UACC-257) | GI50 (SNB-75) | GI50 (NCI-H522) | GI50 (RPMI-8226) | GI50 (A549) | GI50 (K562) | GI50 (NCI-H23) |
| --- | --- | --- | --- | --- | --- | --- | --- | --- | --- | --- | --- | --- | --- | --- | --- | --- | --- | --- | --- | --- |
| C=CCn1cnc2c(O)nc(Nc3ccccc3)nc21 | > 100 µM (inactive) | > 100 µM (inactive) | > 100 µM (inactive) | > 100 µM (inactive) | > 100 µM (inactive) | > 100 µM (inactive) | > 100 µM (inactive) | > 100 µM (inactive) | > 100 µM (inactive) | > 100 µM (inactive) | > 100 µM (inactive) | > 100 µM (inactive) | > 100 µM (inactive) | > 100 µM (inactive) | > 100 µM (inactive) | > 100 µM (inactive) | > 100 µM (inactive) | > 100 µM (inactive) | – | – |
| O=c1[nH]nc(Cc2ccccc2)n1/N=C/c1c(O)ccc2ccccc12 | 22 µM (inactive) | 29.2 µM (inactive) | 18.2 µM (inactive) | 20.7 µM (inactive) | 19.2 µM (inactive) | 21.2 µM (inactive) | 43.5 µM (inactive) | 17.1 µM (inactive) | 43.6 µM (inactive) | – | 18.4 µM (inactive) | 18.5 µM (inactive) | – | 35.3 µM (inactive) | 17.7 µM (inactive) | 16.6 µM (inactive) | 19.8 µM (inactive) | 32 µM (inactive) | 23.2 µM (inactive) | 27.2 µM (inactive) |
| COc1ccc([C@H]2[C@@H]3CCc4ccccc4C3=NN2C(N)=S)cc1OC | 32.7 µM (inactive) | 34 µM (inactive) | 60.3 µM (inactive) | 40.1 µM (inactive) | 35.4 µM (inactive) | 69.3 µM (inactive) | 58.2 µM (inactive) | 51.4 µM (inactive) | 32.4 µM (inactive) | 44.1 µM (inactive) | 77.3 µM (inactive) | > 100 µM (inactive) | 67.1 µM (inactive) | 45.5 µM (inactive) | – | 15.9 µM (inactive) | 37.9 µM (inactive) | 41.9 µM (inactive) | 22.4 µM (inactive) | 34.6 µM (inactive) |
| Cc1oc2c(c1C)S(=O)(=O)C(C#N)C(c1ccccc1)N2 (stereo not drawn) | > 100 µM (inactive) | 41.4 µM (inactive) | 55 µM (inactive) | > 100 µM (inactive) | 64.6 µM (inactive) | > 100 µM (inactive) | > 100 µM (inactive) | 65.6 µM (inactive) | 20.4 µM (inactive) | 41 µM (inactive) | > 100 µM (inactive) | > 100 µM (inactive) | 40.4 µM (inactive) | 56.6 µM (inactive) | 40.2 µM (inactive) | 16.9 µM (inactive) | – | 44.7 µM (inactive) | – | 69.5 µM (inactive) |
| CCOCC(NC(=O)C(CC(C)C)NC(=O)OC(C)(C)C)C(N)=O (stereo not drawn) (Boc-Leu-Ser(Et)-NH2; configuration not given here) | > 100 µM (inactive) | > 100 µM (inactive) | 1.46 µM (inactive) | > 100 µM (inactive) | > 100 µM (inactive) | > 100 µM (inactive) | 1.59 µM (inactive) | > 100 µM (inactive) | 41 µM (inactive) | – | > 100 µM (inactive) | > 100 µM (inactive) | > 100 µM (inactive) | > 100 µM (inactive) | 0.11 µM (active) | > 100 µM (inactive) | – | > 100 µM (inactive) | – | > 100 µM (inactive) |
| Clc1ccc(OCc2nnc3sc(-c4ccc(-c5ccc(Cl)cc5Cl)o4)nn23)cc1 | > 100 µM (inactive) | – | 84.3 µM (inactive) | > 100 µM (inactive) | 36.9 µM (inactive) | > 100 µM (inactive) | > 100 µM (inactive) | > 100 µM (inactive) | > 100 µM (inactive) | > 100 µM (inactive) | > 100 µM (inactive) | > 100 µM (inactive) | > 100 µM (inactive) | > 100 µM (inactive) | 7.85 µM (inactive) | > 100 µM (inactive) | > 100 µM (inactive) | > 100 µM (inactive) | > 100 µM (inactive) | > 100 µM (inactive) |
| Nc1nc2ncn(CC(O)COC(=O)c3ccccc3)c2c(=O)[nH]1 (stereo not drawn) | > 100 µM (inactive) | > 100 µM (inactive) | > 100 µM (inactive) | > 100 µM (inactive) | > 100 µM (inactive) | > 100 µM (inactive) | > 100 µM (inactive) | > 100 µM (inactive) | > 100 µM (inactive) | > 100 µM (inactive) | – | > 100 µM (inactive) | > 100 µM (inactive) | > 100 µM (inactive) | > 100 µM (inactive) | > 100 µM (inactive) | > 100 µM (inactive) | > 100 µM (inactive) | > 100 µM (inactive) | > 100 µM (inactive) |
